Data: PubChem BioAssay AID1391 (Sanford-Burnham Center for Chemical Genomics, 2008)

System: CSM14.1 cells, thapsigargin-induced p-p38/p38 MSD ELISA
Assay: p-p38/p38 ratio reduction under ER stress – MSD ELISA, CSM14.1 cells, thapsigargin, mechanism study for ER stress apoptosis inhibitor project, dose response (AID 1391)
Conditions: at 10 µM (top of the series)

SMILES | p-p38/p38 ratio, lower = inhibition
CC1(C)CC(=O)C2=C(C1)Nc1ccccc1NC2c1ccc(-c2ccccc2)cc1 (configuration not stated) | 1.47
COc1ccc(C2CC(=O)C3=C(C2)Nc2ccccc2NC3c2cccc(Oc3ccccc3)c2)cc1OC (configuration not stated) | 1.86
